pIC50: −log10 of the molar value.
Legend:
[1] = test system: Plasmodium berghei ANKA strain; assay: Recurrence rate of cerebral malaria model mice (blood smear); assay type: in vivo, C57BL/6J mice
Text: (§1) Experimental study on the antimalarial activity of Artesunazine (Example Ia-1) in vitro and vivo. I. Protection of Artesunazine on mice infected by Plasmodium berghei ANKA strain. (I) Experimental materials: • 1. Animals: C57BL/6J, weighing 16-18 g, 10 in each group, 50 in total. • 2. Plasmodium strain: Plasmodium berghei ANKA strain, donated by Professor Zhao Ya of Air Force Medical University of the People's Liberation Army of China (The Fourth Military Medical University), was preserved in our laboratory by blood transmission or freezing. • 3. Drugs and preparation methods: Artesunazine and a positive control drug artesunate were dissolved in a mixed solvent of polyethylene glycol 400 (PEG400) and water (PEG400:water=4:1), serving as a preparation for immediate use. (II) Experimental methods • 1. Plasmodium resuscitation and passage: A Plasmodium berghei ANKA strain frozen in liquid nitrogen was taken out and placed in a water bath kettle at 37°C. After melting, it was immediately intraperitoneally inoculated into C57BL/6J mice (0.2 mL/mouse). When the infection rate of the breeding mice reached 15-30%, their eyeballs were removed and blood was collected in an anticoagulant tube. After shaking well, the blood was transmitted to offspring C57BL/6J mice with a 1 mL syringe at an injection dose of 0.2 mL/mouse. • 2. Plasmodium inoculation: C57BL/6J mice were weighed and fed adaptively. When the infection rate of offspring C57BL/6J mice reached 15-30%, the total number of red blood cells and the number of pRBCs were counted after their eyeballs were removed and blood was collected. The blood was injected intraperitoneally into model group C57BL/6J mice at an injection dose of 0.2 mL (including 1×10^7 pRBCs) per mouse, which was the 0th day (D0) of inoculation. • 3. Animal grouping: After inoculation, the experimental mice were randomly divided into 5 groups, including a model (M) group, high, medium and low dose Artesunazine groups (i.e., 40 mg/kg, 20 mg/kg, and 10 mg/kg Artesunazine), and an artesunate group (i.e., 15.6 mg/kg AS, clinically equivalent dose). The dosage of the medium dose Artesunazine group (20mg/kg Artesunazine) is equivalent to that of the artesunate group (15.6 mg/kg). There are 10 mice in each group, a total of 50 mice. • 4. Determination of survival rate From the 0th day of inoculation, the death of mice was observed every day for 28 consecutive days. Survival rate = (Number of surviving mice)/(Number of experimental mice) × 100% [formula] • 5. Determination of recurrence rate After inoculation, the mice were randomly divided into groups and administered via nasal drip for 3 h. After four consecutive days of administration, blood smear test began at D4. A small drop of blood was taken from the tail tip of a mouse and dropped onto a glass slide. The blood drop was pushed to one end at a certain angle with the edge of another glass slide to make a thin blood film with appropriate thickness. After the thin blood film was air-dried, it was fixed with methanol and placed until completely air-dried. After a Giemsa stain solution was diluted at a ratio of 1:9 for staining (completely covering the fixed thin blood film) for 20 min, the thin blood film was rinsed under a faucet, and the water on the surface of the film was quickly absorbed with filter paper. A drop of cedar oil was dropped onto a glass slide for examination under a 100x oil microscope to count the number of parasitized red blood cells contained in 1000 red blood cells. The mouse recurrence rate was calculated by the ratio of the number of mice with recurrence to the total number of mice. Recurrence rate = (Number of mice with recurrence)/(Number of experimental mice) × 100% [formula] • 6. RMCBS score determination A rapid mouse coma behavior scale (RMCBS) was used to evaluate the neurological function of experimental mice. […]

[2] = test system: Plasmodium falciparum 3D7; assay: SYBR Green assay, growth inhibition of Plasmodium falciparum cultured in vitro; assay type: cell-based; settings: Plasmodium falciparum standard strain 3D7, cultured for 72 h; read-out: IC50
Procedure: Plasmodium falciparum in the ring stage was synchronized. Smearing was carried out and the infection rate was counted. The synchronized parasitized red blood cells, healthy red blood cells and mediums were matched in a reasonable ratio, resulting in an in vitro culture system of plasmodia (ring bodies, 2 to 4 hours-old) with a hematocrit of 2% and an infection rate of 1%. […] A1-A10 was paved with 25 µl of drugs (with 8 complex wells for each drug) and mixed evenly, and then diluted in multiple proportions (Ax-Hx). Except for A12-H12, 50 µL of a plasmodium culture solution was spread in all the other wells; and A12-H12 was spread with 50 µl of healthy red blood cells (in the medium with a hematocrit of 2%). […] 100 µl of a lysis buffer was added to each of the wells and put into a drawer to avoid light for 1 h.
In this experiment, SYBR Green assay was used to determine the median inhibitory concentration (IC50) value of the drug for treating Plasmodium falciparum 3D7. Nonlinear regression was used to calculate the value by means of software graphpad prism 8.0 (the value was equal to average value plus or minus standard error), and a four-parameter logistic fitting curve was used. Each value in the curve was equal to average value plus or minus standard error in eight biological repetitive experiments.

[3] = test system: Plasmodium berghei ANKA strain; assay: Rapid mouse coma behavior scale (RMCBS) score of cerebral malaria model mice; assay type: in vivo, C57BL/6J mice
Text: as §1, with “After four consecutive days of administration, blood smear test began at D4. A small drop of blood was taken from the tail tip of a mouse and dropped onto a glass slide. The blood drop was pushed to one end at a certain angle with the edge of another glass slide to make a thin blood film with appropriate thickness. After the thin blood film was air-dried, it was fixed with methanol and placed until completely air-dried. After a Giemsa stain solution was diluted at a ratio of 1:9 for staining (completely covering the fixed thin blood film) for 20 min, the thin blood film was rinsed under a faucet, and the water on the surface of the film was quickly absorbed with filter paper. A drop of cedar oil was dropped onto a glass slide for examination under a 100x oil microscope to count the number of parasitized red blood cells contained in 1000 red blood cells.” left out, “mice.” for “mice. Recurrence rate = (Number of mice with recurrence)/(Number of experimental mice) × 100% [formula] • 6. RMCBS score determination A rapid mouse coma behavior scale (RMCBS) was used to evaluate the neurological function of experimental mice.”

[4] = 80% polyethylene glycol 400 solution, 40°C, dark
Procedure: 160.2 mg of Artesunazine was weighed and put into a penicillin bottle, 8 mL of a 80% polyethylene glycol 400 solution was added, and the Artesunazine was completely dissolved by ultrasonic treatment, resulting in about 20.25 mg/mL Artesunazine solution. Subsequently, the penicillin bottle filled with the solution was sealed, covered with aluminum foil paper for light avoidance treatment, and placed in a stability test box at 40°C; and 0.5 mL to 25 mL of the solution was sampled into volumetric flasks on days 0, 3, 7, and 10, respectively. After diluting with methanol and shaking well, the content of the Artesunazine was determined by an ultra performance liquid chromatography (UPLC) method.
The UPLC determination conditions for the Artesunazine are as follows: Instrument: ultra performance liquid chromatography Waters ACQUITY UPLC, chromatographic column: ACQUITY UPLC HSS T3 Column (100 Å, 1.8 µm, 2.1 mm×100 mm), detection wavelength: 295 nm, mobile phase: acetonitrile-0.1% phosphoric acid water (35:65), flow rate: 0.3 ml/min, column temperature: 30°C, sample room temperature: 25°C, injection volume: 3 µL. […]

[5] = test system: Plasmodium berghei ANKA strain; assay: Anal temperature of cerebral malaria model mice; assay type: in vivo, C57BL/6J mice; settings: compared with the AS group (P<0.001)
Text: Experimental study on the antimalarial activity of Artesunazine (Example Ia-1) in vitro and vivo. I. Protection of Artesunazine on mice infected by Plasmodium berghei ANKA strain. (I) Experimental materials: • 1. Animals: C57BL/6J, weighing 16-18 g, 10 in each group, 50 in total. • 2. Plasmodium strain: Plasmodium berghei ANKA strain, donated by Professor Zhao Ya of Air Force Medical University of the People's Liberation Army of China (The Fourth Military Medical University), was preserved in our laboratory by blood transmission or freezing. • 3. Drugs and preparation methods: Artesunazine and a positive control drug artesunate were dissolved in a mixed solvent of polyethylene glycol 400 (PEG400) and water (PEG400:water=4:1), serving as a preparation for immediate use. (II) Experimental methods • 1. Plasmodium resuscitation and passage: A Plasmodium berghei ANKA strain frozen in liquid nitrogen was taken out and placed in a water bath kettle at 37°C. After melting, it was immediately intraperitoneally inoculated into C57BL/6J mice (0.2 mL/mouse). […] When the infection rate of offspring C57BL/6J mice reached 15-30%, the total number of red blood cells and the number of pRBCs were counted after their eyeballs were removed and blood was collected. […] The mouse recurrence rate was calculated by the ratio of the number of mice with recurrence to the total number of mice. […]

[6] = test system: Plasmodium berghei ANKA strain; assay: Survival rate of cerebral malaria model mice; assay type: in vivo, C57BL/6J mice; settings: nasal drip, four consecutive days, 28 days of observation
Text: as §1, with “After four consecutive days of administration, blood smear test began at D4. A small drop of blood was taken from the tail tip of a mouse and dropped onto a glass slide. The blood drop was pushed to one end at a certain angle with the edge of another glass slide to make a thin blood film with appropriate thickness. After the thin blood film was air-dried, it was fixed with methanol and placed until completely air-dried. After a Giemsa stain solution was diluted at a ratio of 1:9 for staining (completely covering the fixed thin blood film) for 20 min, the thin blood film was rinsed under a faucet, and the water on the surface of the film was quickly absorbed with filter paper. A drop of cedar oil was dropped onto a glass slide for examination under a 100x oil microscope to count the number of parasitized red blood cells contained in 1000 red blood cells.” left out, “mice.” for “mice. Recurrence rate = (Number of mice with recurrence)/(Number of experimental mice) × 100% [formula] • 6. RMCBS score determination A rapid mouse coma behavior scale (RMCBS) was used to evaluate the neurological function of experimental mice.”

[7] = test system: Plasmodium berghei ANKA strain; assay: Body weight of cerebral malaria model mice; assay type: in vivo, C57BL/6J mice
Text: as §1, with “After four consecutive days of administration, blood smear test began at D4. A small drop of blood was taken from the tail tip of a mouse and dropped onto a glass slide. The blood drop was pushed to one end at a certain angle with the edge of another glass slide to make a thin blood film with appropriate thickness. After the thin blood film was air-dried, it was fixed with methanol and placed until completely air-dried. After a Giemsa stain solution was diluted at a ratio of 1:9 for staining (completely covering the fixed thin blood film) for 20 min, the thin blood film was rinsed under a faucet, and the water on the surface of the film was quickly absorbed with filter paper. A drop of cedar oil was dropped onto a glass slide for examination under a 100x oil microscope to count the number of parasitized red blood cells contained in 1000 red blood cells.” left out, “mice.” for “mice. Recurrence rate = (Number of mice with recurrence)/(Number of experimental mice) × 100% [formula] • 6. RMCBS score determination A rapid mouse coma behavior scale (RMCBS) was used to evaluate the neurological function of experimental mice.”

Cc1nc(C)c(COC(=O)CCC(=O)OC2OC3OC4(C)CCC5C(C)CCC(C2C)C35OO4)nc1C [Compound Ia-1, (3R, 5aS, 6R, 9R, 10R, 12R, 12aR)-3,6,9-trimethyldecahydro-12h-3, 12-epoxy [1, 2] dioxopyran [4,3-i] isobenzopyran-10-yl ((3,5,6-trimethylpyrazine-2-yl)methyl) succinate]
Recurrence rate (%) D4 ([1]; 10 mg/kg): 10%
Recurrence rate (%) D7 ([1]; 10 mg/kg, D7): 80%
Recurrence rate (%) D28 ([1]; 10 mg/kg): 100%
Recurrence rate (%) D4 ([1]; 20 mg/kg): 0%
Recurrence rate (%) D28 ([1]; 20 mg/kg): 10%
Recurrence rate (%) D4 ([1]; 40 mg/kg): 0%
Recurrence rate (%) D28 ([1]; 40 mg/kg): 10%
pIC50 [2]: 8.13
RMCBS score ([3]; 10 mg/kg): 18.40±0.48 points
RMCBS score ([3]; 20 mg/kg): around 20 points
RMCBS score ([3]; 40 mg/kg): around 20 points
color of the solution [4]: basically unchanged
temperature ([5]; 20 mg/kg): better maintained the temperature
temperature ([5]; 40 mg/kg): better maintained the temperature
survival rate ([6]; 10 mg/kg Artesunazine (low dose)): 50%
survival rate ([6]; 20 mg/kg Artesunazine (medium dose)): 90%
survival rate ([6]; 40 mg/kg Artesunazine (high dose)): 100%
body weight ([7]; 10 mg/kg, at the end of the observation): 16.66±0.45
body weight ([7]; 20 mg/kg, throughout the observation period): no significant decrease
body weight ([7]; 40 mg/kg, throughout the observation period): no significant decrease

Cc1nc(C)c(COC(=O)CC(=O)OC2OC3OC4(C)CCC5C(C)CCC(C2C)C35OO4)nc1C [Compound Ia-2, (3R, 5aS, 6R, 9R, 10R, 12R, 12aR)-3,6,9-trimethyldecahydro-12h-3, 12-epoxy [1, 2] dioxopyran [4,3-i] isobenzopyran-10-yl ((3,5,6-trimethylpyrazine-2-yl)methyl) malonate]
pIC50 [2]: 7.90

Cc1nc(C)c(COC(=O)CCCC(=O)OC2OC3OC4(C)CCC5C(C)CCC(C2C)C35OO4)nc1C [Compound Ia-4, (3R, 5aS, 6R, 9R, 10R, 12R, 12aR)-3,6,9-trimethyldecahydro-12h-3, 12-epoxy [1, 2] dioxopyran [4,3-i] isobenzopyran-10-yl ((3,5,6-trimethylpyrazine-2-yl)methyl) glutarate]
pIC50 [2]: 7.47

Cc1nc(C)c(COC(=O)CCCCCC(=O)OC2OC3OC4(C)CCC5C(C)CCC(C2C)C35OO4)nc1C [Compound Ia-5, (3R, 5aS, 6R, 9R, 10R, 12R, 12aR)-3,6,9-trimethyldecahydro-12h-3, 12-epoxy [1, 2] dioxopyran [4,3-i] isobenzopyran-10-yl ((3,5,6-trimethylpyrazine-2-yl)methyl) pimelate]
pIC50 [2]: 8.53

Cc1nc(C)c(COC(=O)CCCCC(=O)OC2OC3OC4(C)CCC5C(C)CCC(C2C)C35OO4)nc1C [Compound Ia-6, (3R, 5aS, 6R, 9R, 10R, 12R, 12aR)-3,6,9-trimethyldecahydro-12h-3, 12-epoxy [1, 2] dioxopyran [4,3-i] isobenzopyran-10-yl ((3,5,6-trimethylpyrazine-2-yl)methyl) adipate]
pIC50 [2]: 7.84

Cc1nc(C)c(COC(=O)CCCCCCC(=O)OC2OC3OC4(C)CCC5C(C)CCC(C2C)C35OO4)nc1C [Compound Ia-7, (3R, 5aS, 6R, 9R, 10R, 12R, 12aR)-3,6,9-trimethyldecahydro-12h-3, 12-epoxy [1, 2] dioxopyran [4,3-i] isobenzopyran-10-yl ((3,5,6-trimethylpyrazine-2-yl)methyl) suberate]
pIC50 [2]: 7.30
